Results taken from US20230373940A1, “CARBOXYLIC DIARYLTHIAZEPINEAMINES AND USES THEREOF” (Kures, Inc., priority 2020, published 2023).
Structures can show the parent of a compound that is named as a salt.

Tests used:
[1] = molecular target: T1, human delta opioid receptor (DOR) (Homo sapiens, UniProt P41143); experiment: BRET assay measuring G protein activation, agonist activity at human DOR; format: cell-based
T1 construct: expressed in transfected cells
Experimental: (§1) The diarylthiazepinamine carboxylic acids (9) were tested for agonist activity at the human mu opioid receptor (MOR) and delta opioid receptor (DOR) using bioluminescence resonance energy transfer (BRET) assays measuring G protein activation as previously described (Table 1) (Rives, M.-L. et al. 2012; Negri, A. et al. 2013).
(§2) Transfection. Human MOR cDNA was transfected alongside […] with RLuc8 inserted at position 91 (GαoB-RLuc8), Gβ1 (β1), and Gγ2 fused to the full-length mVenus at its N terminus (mVenus-γ2) into HEK-293T cells (5×10^6 cells/plate) in 10-cm dishes using PEI (Polysciences Inc.; Warrington, PA) in a 1:1 ratio diluted in Opti-MEM (Life Technologies Corp.; Grand Island, NY) to assay for G protein activation as described previously (Rives, M.-L. et al. 2012; Negri, A. et al. 2013). Cells were maintained in Dulbecco's Modified Eagle Medium (high glucose #11965; Life Technologies) supplemented with 10% FBS (Premium Select, Atlanta Biologicals; Atlanta, GA) and 100 U/mL penicillin and 100 μg/mL streptomycin (#15140, Life Technologies). After 24 hours the media was changed, and the experiment was performed 24 hours later (48 hours after transfection).
(§3) BRET. Transfected cells were dissociated and re-suspended in phosphate-buffered saline (PBS). Approximately 200,000 cells/well were added to a black-framed, white well 96-well plate (#60050; Perkin Elmer; Waltham, MA). The microplate was centrifuged and the cells were re-suspended in PBS. Then 5 μM of the luciferase substrate coelenterazine H was added to each well for 5 minutes. Following coelenterazine H addition, ligands were added and the BRET signal was measured at 5 minutes on a PHERAstar FS plate reader. Quantification of the BRET signal required calculating the ratio of the light emitted by the energy acceptor, mVenus (510-540 nm), over the light emitted by the energy donor, RLuc8 (485 nm). […] Dose response curves were fit using a three-parameter logistics equation in GraphPad Prism 6.

[2] = molecular target: T2, human mu opioid receptor (MOR) (Homo sapiens, UniProt P35372); experiment: BRET assay measuring G protein activation, agonist activity at human MOR (transfected HEK-293T cells); format: cell-based; settings: for MOR potency relative to analogs lacking substitution at position 2: dihalo-substituted core
T2 construct: expressed in transfected cells; host or cells: HEK-293T
Experimental: as §1, §2, §3
The additional diarylthiazepinamine carboxylic acids (9i, 9j, 9k, and 91) were tested for agonist activity at the human mu opioid receptor (MOR) using bioluminescence resonance energy transfer (BRET) assays measuring G protein activation (Table 2) as previously described (Rives, M.-L. et al. 2012; Negri, A. et al. 2013; Example 2 of the present application).

[3] = for Solubility, 100 mM HCl, pH 1 (mg/mL): pH 1, 25° C.
Experimental: Solubility Determination. Test compounds (4 mg) were added to 200 μL of one of the tested aqueous solutions (hereinafter—buffer): 100 mM aqueous HCl (pH 1) or 100 mM Na-phosphate buffer (pH 7). The obtained suspensions/solutions with the theoretical concentration of 20 mg/mL were further allowed to equilibrate at 25° C. on a thermostatic orbital shaker for 24 hours and then centrifuged at 6000 rpm for 4 minutes and filtered through HTS filter plates using a vacuum manifold. In parallel, compound dilutions in 50% acetonitrile/HCl and 30% acetonitrile/Na-phosphate buffer mixes were prepared to theoretical concentrations of 0 mg/mL (blank), 0.1 mg/mL, 0.2 mg/mL, and 0.4 mg/mL in duplicates to generate calibration curves falling within the optimum UV absorption range. The filtrates of test compounds were diluted 100-fold with acetonitrile-buffer mixtures before measuring. The filtered supernatant test samples were transferred to 96-well plates and measured for absorbance in the 200-550 nm range with 5 nm step increment. The concentrations of compounds in supernatants were calculated using the measured absorbance and the previously determined calibration curve. Proper absorbance wavelengths for calculations were selected for each compound manually based on absorbance maxima (absolute absorbance unit values for the minimum and maximum concentration points within 0-2.5 OD range).

[4] = Solubility Determination (Method A), distilled water, stirred 24 h; format: physicochemical
Experimental: Solubility Determination (Method A). A quantity of the appropriate compound sufficient to saturate the resulting solution was added to distilled water (0.50 mL) and the mixture was stirred vigorously for 24 h at room temperature (20° C.). The mixture was then centrifuged for 3 min. at 21,000×g and the stir bar was carefully removed. The mixture was then centrifuged again for 5 min. at 21,000×g and the supernatant was carefully removed by syringe and passed through a […] syringe filter. An aliquot (300 μL) of the filtered supernatant was concentrated in vacuo and the mass of the residual solids determined in order to calculate the solubility.

male C57BL/6 mice = experiment: Analgesic activity in hot plate assay; format: in vivo, mouse; settings: for ED50: Mus musculus, sc, hot plate 55° C., male C57BL/6 mice; for Analgesic activity in the mouse hot plate assay: much higher potency than tianeptine
Experimental: Analgesic Activity in Hot Plate Assay. Male C57BL/6 mice were timed for latency to jump on a hot-plate apparatus set to 55° C., using a 30 s cutoff to prevent tissue damage. Following a baseline test, animals were injected subcutaneously (s.c.) with escalating doses of drug and tested at […] (time of maximal effect). Dose-response curves were fit via nonlinear regression using GraphPad Prism (La Jolla, CA).

[5] = Solubility Determination (Method B), distilled water, orbital shaker 2 h; format: physicochemical; settings: neutral unbuffered water, vs iodotianeptine
Experimental: Solubility Determination (Method B). A quantity of the appropriate compound sufficient to saturate the resulting solution was added to distilled water (0.50 mL) and the mixture agitated on an orbital shaker for 2 h at room temperature (20° C.). The mixture was then centrifuged for 5 min. at 21,000×g and the supernatant was carefully removed by syringe and passed through a […] syringe filter. An aliquot (300 μL) of the filtered supernatant was concentrated in vacuo and the mass of the residual solids determined in order to calculate the solubility.

MOR = MOR (Homo sapiens, UniProt P35372); settings: Gassaway, M. M. et al. 2014; cited from earlier work
DOR = DOR (Homo sapiens, UniProt P41143); settings: Gassaway, M. M. et al. 2014; cited from earlier work
[6] = average of 2 independent trials

T2 sequence (P35372 whole entry): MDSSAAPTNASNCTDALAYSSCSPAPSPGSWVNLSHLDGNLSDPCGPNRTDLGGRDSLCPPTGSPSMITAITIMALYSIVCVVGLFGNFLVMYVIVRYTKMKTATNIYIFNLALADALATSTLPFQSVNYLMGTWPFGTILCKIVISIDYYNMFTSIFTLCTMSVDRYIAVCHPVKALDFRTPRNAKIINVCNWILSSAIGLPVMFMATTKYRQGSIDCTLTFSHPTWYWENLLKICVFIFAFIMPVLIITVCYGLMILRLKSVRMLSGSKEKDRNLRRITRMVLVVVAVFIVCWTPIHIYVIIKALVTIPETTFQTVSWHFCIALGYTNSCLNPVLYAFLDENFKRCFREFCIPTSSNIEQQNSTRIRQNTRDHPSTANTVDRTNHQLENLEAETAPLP
T1 sequence (P41143 whole entry): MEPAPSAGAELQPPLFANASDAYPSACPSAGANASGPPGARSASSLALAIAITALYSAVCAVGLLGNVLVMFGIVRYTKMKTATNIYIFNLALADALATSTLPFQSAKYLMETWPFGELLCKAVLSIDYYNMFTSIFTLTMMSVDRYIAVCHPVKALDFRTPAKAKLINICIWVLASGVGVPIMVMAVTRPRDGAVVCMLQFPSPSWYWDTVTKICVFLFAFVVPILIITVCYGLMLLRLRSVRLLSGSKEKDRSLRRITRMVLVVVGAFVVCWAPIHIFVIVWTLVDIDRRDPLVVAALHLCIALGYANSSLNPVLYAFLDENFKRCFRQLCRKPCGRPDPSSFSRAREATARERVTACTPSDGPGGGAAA
Chain of MOR (P35372 whole entry): as the sequence (P35372 whole entry) above
Chain of DOR (P41143 whole entry): as the sequence (P41143 whole entry) above

CN1c2ccccc2C(NCCCCCCCC(=O)O)c2ccc(I)cc2S1(=O)=O (racemic) [Compound 9e, 8-((3-Iodo-6-methyl-5,5-dioxido-6,11-dihydrodibenzo[c,f][1,2]thiazopin-11-yl)amino) octanoic acid hydrochloride salt] gave an EC50 [1] of 724 ± 99 nM and an EC50 [2] of 24.2 ± 11 nM.

CN1c2ccccc2C(NCCCCCCCCCC(=O)O)c2ccc(I)cc2S1(=O)=O (racemic) [Compound 9g, 10-((3-Iodo-6-methyl-5,5-dioxido-6,11-dihydrodibenzo[c,f][1,2]thiazopin-11-yl)amino)decanoic acid hydrochloride salt] showed an EC50 [1] of 262 ± 25 nM and an EC50 [2] of 26.6 ± 1.8 nM.

For CN1c2ccccc2C(NCCCCCCC(=O)O)c2cc(F)c(Br)cc2S1(=O)=O.Cl (stereo not drawn) [Compound 9b, 7-((3-Bromo-2-fluoro-6-methyl-5,5-dioxido-6,11-dihydrodibenzo[c,f][1,2]thiazopin-11-yl)amino) heptanoic acid hydrochloride salt], the “Solubility, 100 mM HCl, pH 1 (mg/mL)” value [3, 6] was 1.1 mg/mL, the “Solubility, 100 mM Na phosphate buffer, pH 7 (mg/mL)” value ([3]; pH 7, 25° C., average of 2 independent trials) was 0.84 mg/mL and the “Fold more soluble than analogous monohalo counterpart” value ([4]; neutral unbuffered water, vs bromotianeptine) was 2-3 fold. For the same compound, the “Aqueous Solubility (mg/mL @ 20° C.)” value ([4]; neutral water, room temperature (20° C.), Method A, average of 2 independent trials) was 9.8 mg/mL, the ED50 (male C57BL/6 mice) was 5.1 mg/kg and the “Analgesic activity in the mouse hot plate assay” value (male C57BL/6 mice) was “potent analgesics”. For the same compound, the “MOR potency relative to analogs lacking substitution at position 2” value [2] was “equipotent or more potent”.

With CSc1ccc2c(c1)S(=O)(=O)N(C)c1ccccc1C2NCCCCCCC(=O)O (stereo not drawn) [Compound 9c, 7-((6-Methyl-3-(methylthio)-5,5-dioxido-6,11-dihydrodibenzo[c,f][1,2]thiazopin-11-yl)amino)heptanoic acid] the “Human DOR agonist type (partial / full agonist)” value [1] was “partial agonist” and the “DOR Emax relative to the control agonist DPDPE” value ([1]; FIG. 1) was “lesser Emax than the control agonist DPDPE”.

With CN1c2ccccc2C(NCCCCCCC(=O)O)c2cc(Cl)c(Cl)cc2S1(=O)=O.Cl (stereo not drawn) [Compound 9i, 7-((2,3-dichloro-6-methyl-5,5-dioxido-6,11-dihydrodibenzo[c,f][1,2]thiazopin-11-yl)amino) heptanoic acid hydrochloride salt] the “MOR potency relative to analogs lacking substitution at position 2” value [2] was “equipotent or more potent”.

In the case of CN1c2ccccc2C(NCCCCCCC(=O)O)c2cc(F)c(Cl)cc2S1(=O)=O.Cl (stereo not drawn) [Compound 9j, 7-((3-chloro-2-fluoro-6-methyl-5,5-dioxido-6,11-dihydrodibenzo[c,f][1,2]thiazopin-11-yl)amino) heptanoic acid hydrochloride salt], the “Fold more soluble than monohalo counterpart at pH 1” value ([3]; pH 1) is reported as 8 fold and the “MOR potency relative to analogs lacking substitution at position 2” value [2] is reported as “equipotent or more potent”.

For CN1c2ccccc2C(NCCCCCCC(=O)O)c2cc(F)c(I)cc2S1(=O)=O.Cl (stereo not drawn) [Compound 9k, 7-((2-fluoro-3-iodo-6-methyl-5,5-dioxido-6,11-dihydrodibenzo[c,f][1,2]thiazopin-11-yl)amino)heptanoic acid hydrochloride salt], the ED50 (male C57BL/6 mice) was 1.7 mg/kg, the “Analgesic activity in the mouse hot plate assay” value (male C57BL/6 mice) was “potent analgesics” and the “Fold more soluble than analogous monohalo counterpart” value [5] was 2-3 fold. The “MOR potency relative to analogs lacking substitution at position 2” value [2] was “equipotent or more potent”.

For CN1c2ccccc2C(NCCCCC(=O)O)c2cc(F)c(Br)cc2S1(=O)=O.Cl (stereo not drawn) [Compound 91, 5-((3-bromo-2-fluoro-6-methyl-5,5-dioxido-6,11-dihydrodibenzo[c,f][1,2]thiazepin-11-yl)amino) pentanoic acid hydrochloride salt], the “MOR potency relative to analogs lacking substitution at position 2” value [2] was “equipotent or more potent”.

For CCOC(=O)CCCCCCNC1c2ccccc2N(C)S(=O)(=O)c2cc(SC)ccc21 (stereo not drawn) [Ester Analog of 9c, Ethyl 7-((6-methyl-3-(methylthio)-5,5-dioxido-6,11-dihydrodibenzo[c,f][1,2]thiazepin-11-yl)amino)heptanoate], the “Human DOR agonist type (partial / full agonist)” value [1] was “partial agonist”.

In the case of CN1c2ccccc2C(NCCCCCCC(=O)[O-])c2ccc(Cl)cc2S1(=O)=O.[Na+] (stereo not drawn) [Tianeptine (Na salt), Tianeptine, reference compound], the ED50 (male C57BL/6 mice) is reported as 15 mg/kg.

For CN1c2ccccc2C(NCCCCCCC(=O)O)c2ccc(Cl)cc2S1(=O)=O (stereo not drawn) [Tianeptine, tianeptine], the “Agonist activity at the MOR (reported)” value (MOR) is given as “full agonist” and the “Agonist activity at the DOR (reported)” value (DOR) is given as “low potency agonist activity”.

With CN1c2ccccc2C(NCCCCCCC(=O)O)c2ccc(Br)cc2S1(=O)=O.Cl (stereo not drawn) [bromotianeptine, reference compound] the “Solubility, 100 mM HCl, pH 1 (mg/mL)” value [3, 6] was under 0.1 mg/mL.

For CN1c2ccccc2C(NCCCCCCC(=O)O)c2ccc(I)cc2S1(=O)=O.Cl (stereo not drawn) [iodotianeptine, reference compound], the “Solubility, 100 mM HCl, pH 1 (mg/mL)” value [3, 6] was under 0.1 mg/mL.
